Data reported in article PMC8395214, “Promising Anticancer Activity of [Bis(1,8-quinolato)palladium (II)] Alone and in Combination” (International Journal of Molecular Sciences, 2021).
Read-outs that look alike come from different tables or passages of the source.

Assays:
[1] = system: Raji (lymphoma), Hela (cervical) and PC-3 (prostate) cancer cell line; conditions: cited from earlier work
[2] = system: Caco-2 cell line; assay: Binary sequenced combination study (MTT, CI and dose-effect parameters); type: cell-based, human; conditions: single drug; for IC50: read-out: Dm (median effect dose)
Method: (§1) Binary sequenced combinations of NH3 with curcumin and EGCG have been investigated in both ovarian and colorectal cancer models using four different cell lines.
(§2) The method for determining single drug cytotoxicity and activity of drugs in sequenced combination was the same as described in our previous articles. […] The plates were then left to incubate under normal growth conditions for 72 h. […] Four hours after the addition of the MTT solution (50 µL per well of 1 mg/mL MTT solution), the purple formazan crystals produced from the reduction of MTT were dissolved in 150 µL DMSO and read with a iMarkTM Bio-Rad Microplate Reader Version 1.04.02.E. The IC50 values were obtained from the results of at least three independent experiments. Proteomic study was conducted following same procedure mentioned before in our published research article.

[3] = system: HT-29 cell line; assay: as above; type: cell-based, human; conditions: single drug; for IC50: read-out: Dm (median effect dose)
Method: as §1, §2

[4] = system: A2780 cell line; assay: as above; type: cell-based, human; conditions: single drug; for IC50: read-out: Dm (median effect dose)
Method: as §1, §2

[5] = system: A2780^cisR cell line; assay: as above; type: cell-based, human; conditions: single drug; for IC50: read-out: Dm (median effect dose)
Method: as §1, §2

[6] = system: HT-29 cell line; assay: Proteomic study, protein expression after treatment with NH3 alone; type: cell-based, human
From the text: (§3) The study has provided information on the underlying mechanism of antitumor activity of NH3 alone in different cell lines. Total of 19 (seven from A2780 cell line, nine from A2780^cisR cell line and three from HT-29 cell line) proteins have been identified from the present study that underwent significant changes in expression following treatment with NH3 alone. Change in folds of the respective proteins after treatment with NH3 alone is shown in Table 2 (A2780 cell line), Table 3 (A2780^cisR cell line) and Table 4 (HT-29 cell line).
as §2

[7] = system: A2780 cell line; assay: as above; type: cell-based, human
From the text: as §3, §2

[8] = system: Swiss-albino adult male mice; assay: Twenty days in vivo toxicity study; conditions: for Survival of mice till the end of the experiment: subcutaneous, twenty days study; for Creatinine / SGOT / SGPT: serum
Method: Experimental animals: Thirty six Swiss-albino adult male mice (body weight range 20 ± 5 gm) were purchased from the Department of Pharmacy, Jahangirnagar University, Bangladesh. Mice were housed in a 12 h day night cycle (light on at 7 am and off at 7 pm) providing bench light of 350 lux, at 25 ± 2 °C temperature and 55 ± 10% humidity. Mice were reared in the cages (580 × 375 × 190 mm), supplied with commercially available food pellet [Rodent diet, ICDDRB, Bangladesh] and drinking water ad libitum. Body weight of each mouse was measured twice every day and other physical changes recorded.
Animal sacrifice, blood and organs collection: Twenty four hours following the last treatment and test, the mice were kept in fasting overnight. Then, they were anaesthetized with intraperitoneal injection of sodium pentobarbital (35 mg/kbw) [Phenobarbital, Incepta Pharmaceuticals, Bangladesh] and sacrificed as shown in Table 9
Blood was collected immediately, centrifuged at 1000 rpm, collected plasma and serum were preserved at –80 °C for biochemical study (SGPT, SGOT and Creatinine). Biochemical investigations were carried out in an auto analyzer (Photometer 5010 V5+, Robert Riely, Berlin, Germany) using Sigma Aldrich (Saint Louis, MO, USA) reagent kit. The mice model preliminary toxicity study was approved by the Biosafety, Biosecurity and Ethical Committee [Approval Number: BBEC-JU/M2019(12)1] of Jahangirnagar University, Savar, Dhaka, Bangladesh. Statistical analysis was conducted through SPSS using Satterthwaite’s method for equality of variances.

[9] = system: MCF-7; assay: MTT reduction assay, cytotoxicity; type: cell-based, human; conditions: MCF-7 cell line
Method: (§4) Dose response curves have been presented in Supplementary File (Figures S1–S5).
as §2

[10] = system: A2780^ZDO473R; assay: MTT reduction assay, cytotoxicity; type: cell-based, human
Method: as §4, §2

[11] = system: A2780; assay: MTT reduction assay, cytotoxicity; type: cell-based, human; conditions: parent ovarian A2780 cell line
Method: as §4, §2

[12] = system: A2780^cisR; assay: MTT reduction assay, cytotoxicity; type: cell-based, human; conditions: A2780^cisR cell line
Method: as §4, §2

[13] = system: Hela; assay: MTT reduction assay, cytotoxicity; type: cell-based, human; conditions: Hela cell line
Method: as §4, §2

[14] = system: A2780^cisR cell line; type: cell-based, human
From the text: as §3, §2

SMILES: Oc1cccc2cccnc12 [8-Hydroxyquinoline]
- Antitumor activity [1]: significant antitumor activity

SMILES: COc1cc(/C=C/C(=O)CC(=O)/C=C/c2ccc(O)c(OC)c2)ccc1O [Curcumin, curcumin]
- IC50 ([2]; Homo sapiens): 21.9 µM
- m (exponent defining the shape of the dose–effect curve) [2]: 1.08
- IC50 ([3]; Homo sapiens): 16.6 µM
- m (exponent defining the shape of the dose–effect curve) [3]: 1.25
- IC50 ([4]; Homo sapiens): 8.63 µM
- m (exponent defining the shape of the dose–effect curve) [4]: 1.25
- IC50 ([5]; Homo sapiens, A2780cisR): 16.7 µM
- m (exponent defining the shape of the dose–effect curve) [5]: 1.56

SMILES: O=C(O[C@@H]1Cc2c(O)cc(O)cc2O[C@@H]1c1cc(O)c(O)c(O)c1)c1cc(O)c(O)c(O)c1 [EGCG, epigallocatechin gallate]
- m (exponent defining the shape of the dose–effect curve) [2]: 1.32
- IC50 [2]: 108 µM
- m (exponent defining the shape of the dose–effect curve) [3]: 0.39
- IC50 [3]: 3.67 µM
- m (exponent defining the shape of the dose–effect curve) [4]: 0.94
- IC50 [4]: 10.3 µM
- m (exponent defining the shape of the dose–effect curve) [5]: 0.93
- IC50 [5]: 8.9 µM

SMILES: [O-]c1cccc2cccnc12.[O-]c1cccc2cccnc12.[Pd+2] [NH3, [Bis(1,8-quinolato)palladium (II)]]
- Change in Expression: Nucleoside Diphosphate kinase B ([6]; spot Hn70): Downregulated
- Fold Change: Nucleoside Diphosphate kinase B ([6]; spot Hn70, Downregulated): 2.14
- Change in Expression: Annexin A1 ([6]; spot Hn89): Downregulated
- Fold Change: Annexin A1 ([6]; spot Hn89, Downregulated): 1.85
- Change in Expression: Histone H4 ([6]; spot Hn119): Downregulated
- Fold Change: Histone H4 ([6]; spot Hn119, Downregulated): 1.91
- Change in Expression: Actin, cytoplasmic 1 ([7]; spot 6): Downregulated
- Fold change: Actin, cytoplasmic 1 ([7]; spot 6, Downregulated): 4.8
- Change in Expression: Vimentin ([7]; spot 12): Downregulated
- Fold Change: Vimentin ([7]; spot 12, Downregulated): 1.63
- Change in Expression: 60 kDa heat shock protein, mitochondrial ([7]; spot 13): Downregulated
- Fold Change: 60 kDa heat shock protein, mitochondrial ([7]; spot 13, Downregulated): 3.23
- Change in Expression: Endoplasmin ([7]; spot 18): Downregulated
- Fold Change: Endoplasmin ([7]; spot 18, Downregulated): 4.56
- Change in Expression: 78 kDa glucose-regulated protein ([7]; spot 45): Downregulated
- Fold Change: 78 kDa glucose-regulated protein ([7]; spot 45, Downregulated): 2.00
- Change in Expression: Polyubiquitin-B ([7]; spot 118): Downregulated
- Fold Change: Polyubiquitin-B ([7]; spot 118, Downregulated): 11.39
- Change in Expression: Histone H3.3 ([7]; spot 155): Downregulated
- Fold Change: Histone H3.3 ([7]; spot 155, Downregulated): 6.63
- Change in mean body weight of mice ([8]; both lower (2.5 mg/kg) and higher (5 mg/kg) doses, vs control groups): Decrease in body weight is also significant
- Toxicity compared to cisplatin ([8]; both lower (2.5 mg/kg) and higher doses (5 mg/kg), twenty days): less toxic
- Survival of mice till the end of the experiment ([8]; higher dose 5 mg/kg): only one mouse died
- Survival of mice till the end of the experiment ([8]; lower dose 2.5 mg/kg): All mice were alive
- Creatinine ([8]; 2.5 mg/kg): 0.9 ± 0.2 mg/dL
- SGOT ([8]; 2.5 mg/kg): 53 ± 4 IU/L
- SGPT ([8]; 2.5 mg/kg): 45 ± 3 IU/L
- Creatinine ([8]; 5 mg/kg): 0.7 ± 0.2 mg/dL
- SGOT ([8]; 5 mg/kg): 59 ± 5 IU/L
- SGPT ([8]; 5 mg/kg): 48 ± 4 IU/L
- m (exponent defining the shape of the dose–effect curve) [2]: 1.96
- IC50 [2]: 0.56 µM
- m (exponent defining the shape of the dose–effect curve) [3]: 2.06
- IC50 [3]: 0.38 µM
- m (exponent defining the shape of the dose–effect curve) [4]: 1.97
- IC50 [4]: 0.18 µM
- m (exponent defining the shape of the dose–effect curve) [5]: 2.05
- IC50 [5]: 0.23 µM
- times greater cytotoxicity than cisplatin [9]: around 65 times
- times greater activity than cisplatin [10]: 80 times
- times greater activity than cisplatin [11]: 10 times
- times greater activity than cisplatin [12]: 90 times
- times greater cytotoxicity than cisplatin [13]: around 10 times
- Change in Expression: Actin, cytoplasmic 1 ([14]; spot 1): Downregulated
- Fold change: Actin, cytoplasmic 1 ([14]; spot 1, Downregulated): 1.51
- Change in Expression: 40S ribosomal protein SA ([14]; spot Cn9): Downregulated
- Fold change: 40S ribosomal protein SA ([14]; spot Cn9, Downregulated): 2.98
- Change in Expression: Heat shock cognate 71 kDa protein ([14]; spot Cn16): Downregulated
- Fold change: Heat shock cognate 71 kDa protein ([14]; spot Cn16, Downregulated): 1.69
- Fold change: Keratin, type II cytoskeletal 1 ([14]; spot Cn23, Upregulated): 2.47
- Change in Expression: Elongation factor Tu, mitochondrial ([14]; spot Cn34): Downregulated
- Fold change: Elongation factor Tu, mitochondrial ([14]; spot Cn34, Downregulated): 7.86
- Change in Expression: Citrate synthase, mitochondrial ([14]; spot Cn41): Downregulated
- Fold change: Citrate synthase, mitochondrial ([14]; spot Cn41, Downregulated): 2.93
- Change in Expression: Transitional endoplasmic reticulum ATPase ([14]; spot Cn56): Downregulated
- Fold change: Transitional endoplasmic reticulum ATPase ([14]; spot Cn56, Downregulated): 3.87
- Change in Expression: Cofilin-1 ([14]; spot Cn69): Downregulated
- Fold change: Cofilin-1 ([14]; spot Cn69, Downregulated): 2.27
- Change in Expression: Actin, cytoplasmic 1 ([14]; spot Cn79): Downregulated
- Fold change: Actin, cytoplasmic 1 ([14]; spot Cn79, Downregulated): 2.79
